# Values of other authors in the CATMoS acute toxicity set (Mansouri et al. 2021).
# Where “and” joins values, the source holds several entries; their conditions need not be identical. Equal values may be shown once.
# Test: rat acute oral toxicity
# Conditions: in vivo
row,Structure (SMILES),LD50
1,O=C1N=C2c3ccccc3N=CN2C1=Cc1ccccc1,325 mg/kg
2,CCCCC(CC)COC(=O)COc1cc(Cl)c(Cl)cc1Cl (stereo not given),500 mg/kg
3,CN(c1ccc(Cl)cc1Cl)c1c([N+](=O)[O-])cc([N+](=O)[O-])cc1C(F)(F)F,4.5 mg/kg
4,Oc1cc(O)cc(Sc2cc(O)cc(O)c2)c1,4290 mg/kg
5,Cc1nccnc1N1CCCCC1,730 mg/kg
6,CC(=O)C(Cl)C(=O)OC(C)c1ccccc1 (stereo not given),880 mg/kg
7,CCOP(=S)(OC(C)C)Sc1nc(C)cc(C)n1 (stereo not given),68 mg/kg
8,Cc1ccccc1C1OCC(O)CO1 (mixture of isomers),3400 mg/kg
9,COC(=O)c1ccccc1O,1700 mg/kg
10,ClCCCCCCCCC(Cl)(Cl)Cl,370 mg/kg
11,Cc1cc(C)c(C)c(C)c1,5160 mg/kg
12,CC(Cc1ccccc1)NN (stereo not given),34 mg/kg
13,CCCCCCNC(=O)n1cc(F)c(=O)[nH]c1=O,268 mg/kg
14,CNC(=O)Oc1ccccc1C(OC)OC,160 mg/kg
15,Cc1cccc(C)c1N(C(=O)CCl)C1CCOC1=O (stereo not given),2600 mg/kg
16,COP(=S)(OC)Oc1ccc(S(C)=O)c(C)c1 (stereo not given),125 mg/kg
17,CC(=O)OCCCc1ccccc1,4700 mg/kg
18,Cn1c2c(c(=O)n1-c1ccccc1)CCCC2,1500 mg/kg
19,CCCCNC1CCCCC1,330 mg/kg
20,N#Cc1ccccc1Cl,396 mg/kg
21,CCOC(C1=NCC(C)(C)CN1)c1ccc(OC)cc1 (stereo not given),625 mg/kg
22,CCC(C)OC(CBr)c1ccccc1 (stereo not given),250 mg/kg
23,COP(=O)(OC)Oc1ccc(S(C)(=O)=O)c(C)c1,30 mg/kg
24,CCCCCCCCCCCC[N+](C)(C)Cc1ccc(Cl)c(Cl)c1,730 mg/kg
25,COP(=O)(OC)SC(P(=O)(OC)OC)=P(OC)(OC)OC,38 mg/kg

row,Structure (SMILES),LD50
1,O=C(CF)Nc1ccc(Br)cc1,29 mg/kg
2,N#CCCSCCC#N,4210 mg/kg
3,CCC(c1ccccc1)c1c(O)c2ccccc2oc1=O (stereo not given),200 mg/kg
4,CC(C)Nc1ccccc1,560 mg/kg
5,CCCCCCCCCOC(=O)C1=CNC=C(C(=O)NC2CCCC2)C1c1ccccc1[N+](=O)[O-] (stereo not given),10 mg/kg
6,C[C@H]1c2cccc(O)c2C(=O)C2=C(O)[C@]3(O)C(=O)C(C(N)=O)=C(O)[C@@H](N(C)C)[C@@H]3[C@@H](O)[C@@H]21,1700 mg/kg
7,CCCCCCCCCCCO,3000 mg/kg
8,COc1ccc(C(=O)CCC(=O)O)c2ccoc12,1230 mg/kg
9,C#CC(C)(O)C(O)c1ccccc1 (stereo not given),730 mg/kg
10,CCCCC(CC)CCl (stereo not given),7340 mg/kg
11,Oc1ccc(-c2ccc(O)cc2)cc1,4920 mg/kg
12,CCN(CC)CCNC(=O)c1cc(Cl)c(N)cc1OCc1ccccc1,220 mg/kg
13,O=C1CC(=O)N(c2ccccc2)N1c1ccccc1,1000 mg/kg
14,Cc1cc2c(cc1C)C(=O)c1n[nH]nc1C2=O,980 mg/kg
15,CCCc1ccccc1,6040 mg/kg
16,CCCCCCOCCCCCC,30900 mg/kg
17,c1ccc(COCc2ccccc2)cc1,2500 mg/kg
18,O=C(Cc1ccc2c(c1)OCc1ccccc1C2=O)OCC(O)CO (stereo not given),95 mg/kg
19,CC(C)CC(=O)CC1(C)CCC(c2ccoc2)O1 (stereo not given),350 mg/kg
20,NC(=O)OCC(O)COc1ccc(Cl)cc1 (stereo not given),744 mg/kg
21,NNc1nnc(NN)c2ccccc12,350 mg/kg and 400 mg/kg
22,CC(=O)OC(C)C[N+](C)(C)C (stereo not given),750 mg/kg
23,OC1(c2ccccc2)c2cc(F)ccc2C2=NCCN21 (stereo not given),40 mg/kg
24,O=CCC1CC2CC1C1CCCC21 (stereo not given),500 mg/kg
25,CC(=O)Oc1ccc(C2(c3ccc(OC(C)=O)cc3)Oc3ccccc3NC2=O)cc1,8000 mg/kg

row,Structure (SMILES),LD50
1,CCN(CC)CC1CCCCN1CC(=O)N1c2ccccc2C(=O)Nc2cccnc21 (stereo not given),1530 mg/kg
2,Cc1ccccc1Oc1cccnn1,3090 mg/kg
3,CCOC(=O)C(SP(=O)(OC)OC)c1ccccc1 (stereo not given),63 mg/kg
4,COC(C=Cc1ccccc1)OC,3700 mg/kg
5,CN(C)c1ccc(N=NS(=O)(=O)O)cc1,60 mg/kg
6,Cc1cccs1,3200 mg/kg
7,C=CCOCC(CC)(CO)CO,4930 mg/kg
8,CCN(CC)CCNC(=O)c1cc(Br)c(N)cc1OC,545 mg/kg
9,COc1ccc(S(=O)(=O)Nc2nnc(C(C)(C)C)s2)cc1,1150 mg/kg
10,N=C(O)CCC/N=C(\c1ccc(Cl)cc1)c1cc(F)ccc1O,1350 mg/kg
11,CCOC(C1=NCC(C)(C)CN1)c1cccc(Cl)c1 (stereo not given),95 mg/kg
12,CNC(=O)Oc1cccc2sccc12,70 mg/kg
13,Cc1ccc(OCC(O)CNC(C)(C)C)c2oc(=O)ccc12 (stereo not given),676 mg/kg
14,C[N+]1(CCC(O)(c2ccccc2)c2cccs2)CCOCC1 (stereo not given),2300 mg/kg
15,CC(C)n1nc(-c2cccc(Cl)c2Cl)c(N)nc1=N,229 mg/kg
16,CCOc1ccc(Cl)cc1C(CN(C)C)C(C)CC (stereo not given),632 mg/kg
17,CCNCC,9900 mg/kg
18,O=C(COc1ccc(Cl)cc1)N1CCN(Cc2ccc3c(c2)OCO3)CC1,4480 mg/kg
19,Cc1cc(C(=O)c2ccccc2)ccc1N=Cc1ccc(OCCC(C)C)cc1,1500 mg/kg
20,O=C1NC(=O)C(c2ccccc2)(c2ccccc2)N1S(=O)(=O)c1ccccc1,1700 mg/kg
21,O=C(O)Cc1ccc2c(c1)OCc1ccccc1C2=O,110 mg/kg
22,CCOP(=S)(OCC)SC(C#N)c1ccccc1 (stereo not given),100 mg/kg
23,CCCCCCCC/C=C\CCCCCCCC(=O)NCCS(=O)(=O)O,4000 mg/kg
24,COC(=O)c1ccc2nc(C(F)(F)F)[nH]c2c1,22.3 mg/kg
25,CCOC(=O)C1=C(C)NC(C)=C(C(=O)OC)C1c1cccc(Cl)c1Cl (stereo not given),1050 mg/kg
